{"source": "patent US20250199004A1", "about": "“METHODS OF EVALUATING TREATMENT OUTCOME IN HIGH GRADE SEROUS OVARIAN CANCER” (THE REGENTS OF THE UNIVERSITY OF COLORADO, A BODY CORPORATE, priority 2018, published 2025)", "key": {"OVCAR4 cells [1]": {"system": "OVCAR4 cells", "settings": "cells allowed to recover 72 h following cisplatin treatment; read-out: OVCAR4 cisplatin IC50 reported by Haley et al.; cited from earlier work"}, "OVCAR8 cells": {"system": "OVCAR8 cells", "assay": "Cisplatin dose-response, cell viability by MTT assay", "assay_type": "cell-based, human", "settings": "24 hours", "experimental": "A majority of HGSOC patients treated with platinum-based (i.e., carboplatin) chemotherapy develop chemoresistance. […] To test this hypothesis, CBX2 knockdown OVCAR4, PEO1, and OVCAR8 cells were grown in an adherent setting for 24 h and subsequently treated with increasing doses of cisplatin. […] The panels in FIG. 7A and FIG. 7B are as follows. Panel A: shControl (shCtrl), shCBX2 #1 and #2 OVCAR8 cells grown in adherent were dosed with cisplatin for 24 hours. Treated cells were utilized for a MTT assay to assess cell viability. Panel B: Same as A, but adherent PEO1 cells were dosed with cisplatin for 48 hours. Panel C: Same as A, but OVCAR8 cells in suspension were dosed with cisplatin for 24 hours. Panel D: Same as A, but PEO1 cells in suspension were dosed with cisplatin for 48 hours. IC50 values were calculated with Prism and are indicated."}, "OVCAR4 cells [2]": {"system": "OVCAR4 cells", "assay": "Annexin V/PI apoptosis assay", "assay_type": "cell-based, human", "settings": "OVCAR4 adherent, loss of CBX2 (shCBX2 #1 or #2) vs shControl, cisplatin 10 μM", "experimental": "(§1) Panels of FIG. 6 are as follows. Panel A: OVCAR4 shControl, shCBX2 #1, and shCBX2 #2 in 96-well plates treated over 24 h with increasing dose of cisplatin (0.5-100 μM). Percent cell viability was measured using the MTT assay and the half maximal inhibitory concentration (IC50) calculated. Panel B: Similarly to (Panel A), OVCAR4 knockdown cell lines were grown in low adherent 96-well plates (forced suspension) and treated with increasing doses of cisplatin over 24 h and percent cell viability measured with MTT for calculation of IC50. Panel C: Annexin/V apoptosis assay of OVCAR4 cells grown in adherent setting with shControl, shCBX2 #1 or #2 treated with cisplatin (10 μM) compared to untreated control. Percent Annexin positive cells are shown. Statistical test=ANOVA. Error bars=S.E.M.\nFollowing 72 h of growth in adherent and suspended states, OVCAR4 and PEO1 cells were harvested and washed in PBS. Alexa Fluor™ 488 Conjugated AnnexinV and Propidium Iodide (PI) (Thermo Fisher Scientific) staining were performed following manufacturer's protocol."}, "PEO1 cells": {"system": "PEO1 cells", "assay": "Cisplatin dose-response, cell viability by MTT assay", "assay_type": "cell-based, human", "settings": "48 hours", "experimental": "(§2) A majority of HGSOC patients treated with platinum-based (i.e., carboplatin) chemotherapy develop chemoresistance. […] To test this hypothesis, CBX2 knockdown OVCAR4, PEO1, and OVCAR8 cells were grown in an adherent setting for 24 h and subsequently treated with increasing doses of cisplatin.\nThe panels in FIG. 7A and FIG. 7B are as follows. Panel A: shControl (shCtrl), shCBX2 #1 and #2 OVCAR8 cells grown in adherent were dosed with cisplatin for 24 hours. Treated cells were utilized for a MTT assay to assess cell viability. Panel B: Same as A, but adherent PEO1 cells were dosed with cisplatin for 48 hours. Panel C: Same as A, but OVCAR8 cells in suspension were dosed with cisplatin for 24 hours. Panel D: Same as A, but PEO1 cells in suspension were dosed with cisplatin for 48 hours. IC50 values were calculated with Prism and are indicated.\nPEO1 and OVCAR4 cells were plated in 96-well plates in both adherent (4000 cells per well) and suspension (6000 cells per well) environments, as described above. These cells were treated over 24 h with increasing concentrations of Cisplatin (0.5-100 μM). 1640 RPMI media and media with 0.9% NaCl were used for control and vehicle control, respectively. Cell viability was assessed using the 3-(4,5-dimethylthiazol-2-yl)-5-(3-carboxymethoxyphenyl)-2-(4-sulfophenyl)-2H-tetrazolium (MTT) assay (Promega, Madison, WI). […]"}, "OVCAR4 cells [3]": {"system": "OVCAR4 cells", "assay": "Cisplatin dose-response, cell viability by MTT assay", "assay_type": "cell-based, human", "settings": "for IC50: 24 h, MTT", "experimental": "as §2\nCBX2 knockdown OVCAR4, PEO1, and OVCAR8 cells were grown in suspension and dosed with cisplatin. […] Although not as robust as OVCAR4 cells, CBX2knockdown also sensitized OVCAR8 and PEO1 cells to cisplatin (FIG. 7B Panels C-D). […] In addition, we further confirmed that in OVCAR4, loss of CBX2 lead to increased cisplatin-induced apoptosis measured with Annexin V/PI (FIG. 6 Panel C).\nas §1\nPEO1 and OVCAR4 cells were plated in 96-well plates in both adherent (4000 cells per well) and suspension (6000 cells per well) environments, as described above. These cells were treated over 24 h with increasing concentrations of Cisplatin (0.5-100 μM). 1640 RPMI media and media with 0.9% NaCl were used for control and vehicle control, respectively. Cell viability was assessed using the 3-(4,5-dimethylthiazol-2-yl)-5-(3-carboxymethoxyphenyl)-2-(4-sulfophenyl)-2H-tetrazolium (MTT) assay (Promega, Madison, WI). Means of at least five wells are reported and experiments were independently repeated in triplicate. Representative dose-response curves are shown."}}, "note": "Where two headings read alike, the source gives them in different places.", "data": [{"compound": "N.N.[Cl][Pt][Cl]", "note": "[cisplatin]", "values": [{"measurement": "IC50", "setting": "OVCAR4 cells [1]", "result": "~6", "unit": "µM"}, {"measurement": "chemosensitivity to cisplatin, shCBX2 cell lines vs shControl cells", "setting": "OVCAR8 cells; OVCAR8, adherent", "result": "significantly more chemosensitive"}, {"measurement": "sensitivity to cisplatin after CBX2 knockdown", "setting": "OVCAR8 cells; OVCAR8, suspension", "result": "sensitized"}, {"measurement": "cisplatin-induced apoptosis measured with Annexin V/PI", "setting": "OVCAR4 cells [2]", "result": "increased"}, {"measurement": "chemosensitivity to cisplatin, shCBX2 cell lines vs shControl cells", "setting": "PEO1 cells; PEO1, adherent", "result": "significantly more chemosensitive"}, {"measurement": "sensitivity to cisplatin after CBX2 knockdown", "setting": "PEO1 cells; PEO1, suspension", "result": "sensitized"}, {"measurement": "chemosensitivity to cisplatin, shCBX2 cell lines vs shControl cells", "setting": "OVCAR4 cells [3]; OVCAR4, adherent", "result": "significantly more chemosensitive"}, {"measurement": "increase in the cisplatin IC50 in suspension cells compared to the adherent cells", "setting": "OVCAR4 cells [3]; OVCAR4 cells", "result": 4.47, "unit": "fold"}, {"measurement": "IC50", "setting": "OVCAR4 cells [3]; OVCAR4 control with intact CBX2, adherent", "result": 38.7, "unit": "µM"}, {"measurement": "IC50", "setting": "OVCAR4 cells [3]; OVCAR4 control with intact CBX2, suspension", "result": 170, "unit": "µM"}, {"measurement": "IC50", "setting": "OVCAR4 cells [3]; OVCAR4 shCBX2 #1 knockdown cells, adherent", "result": 12.7, "unit": "µM"}, {"measurement": "IC50", "setting": "OVCAR4 cells [3]; OVCAR4 shCBX2 #1 knockdown cells, suspension", "result": 7.19, "unit": "µM"}, {"measurement": "IC50", "setting": "OVCAR4 cells [3]; OVCAR4 shCBX2 #2 knockdown cells, adherent", "result": 15.4, "unit": "µM"}, {"measurement": "IC50", "setting": "OVCAR4 cells [3]; OVCAR4 shCBX2 #2 knockdown cells, suspension", "result": 18.1, "unit": "µM"}]}]}
